Earlier results in patent publication US7815936B2, “Use of granular materials based on pyrogenically produced silicon dioxide in pharmaceutical compositions” (Evonik Degussa GmbH, priority 2001, dated 2010).

Conditions: pure active constituent in water, reached only after shaking over several days

saturation equilibrium value: 1.1 mg/100 ml
Compound: C#C[C@]1(O)CC[C@H]2[C@@H]3CCc4cc(O)ccc4[C@H]3CC[C@@]21C [ethinyl oestradiol]
